Converted amounts (≈) assume the structure as drawn. “And” between values parts separate entries of the source, which are not always exact repeats. Identical values can stand only once.
Legend:
[1] = target: T1, H. pylori Shikimate Dehydrogenase (HpSDH) (Helicobacter pylori, UniProt P56119); assay: Inhibition activity assay toward HpSDH; type: biochemical; details: for IC50: IC50 toward HpSDH, wild type (26695) HpSDH recombinant protein; for inhibition activity toward HpSDH (in words): preliminary screening concentration 100 μM
T1 construct: made in house; host or cells: E. coli BL21
T1 sequence (P56119 whole entry): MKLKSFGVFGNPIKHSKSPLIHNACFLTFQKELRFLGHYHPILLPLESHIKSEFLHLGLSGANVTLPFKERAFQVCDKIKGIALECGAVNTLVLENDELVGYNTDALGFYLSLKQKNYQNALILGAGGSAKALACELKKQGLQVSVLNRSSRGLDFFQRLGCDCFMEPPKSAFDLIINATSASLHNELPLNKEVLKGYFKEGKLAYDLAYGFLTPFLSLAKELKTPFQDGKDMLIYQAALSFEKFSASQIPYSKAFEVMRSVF
Source text: The recombinant HpSDH (aroE) was cloned in pET-28a plasmid and transformed into E. coli strain BL21 as expression host.
Relative HpSDH activity calculations were based on the initial velocity that absorbance at the 5 to 10% of the time when reaction absorbance reached the maximum level. The variable slope of this time interval represented the reaction rate of HpSDH at various concentration of compound and normalized with the negative control HpSDH (without inhibitor) which represented 100% activity.
To evaluate structure activity relationship (SAR), all the synthesized compounds in SDH inhibition activity on wild type HpSDH recombinant protein was evaluated. All the datas of effective compounds were expressed as IC50 value after treated with different compounds. In priminary screening, using 100 μM as priminary screening concentration to evaluate all synthesized compounds.
(§1) The enzymatic activity of HpSDH was measured in the direction of reduction of NADP^+ to NADPH in the present of shikimic acid at 340 nm absorbance and conducted in 96-well plate ELISA reader. The final concentration of shikimic acid and NADP^+ were 2 mM, and the final protein concentration was 100 nM. Shikimic acid was added by injector needle equipped in ELISA reader to ensure the measurements were made at the same time spacing. NADPH would accumulate along with reaction, and the absorbance at 340 nm would be measured in every cycle of HpSDH reaction.

[2] = test system: H. pylori; assay: Minimum bactericidal concentration assay (MBC assay) against H. pylori; type: cell-based, Helicobacter pylori; details: for MBC: Helicobacter pylori; for anti-bacterial activity toward H. pylori (in words): wild type (26695) and clinical isolated strains
Method: To evaluate the anti-H. pylori activity, the minimum bactericidal concentration (MBC) value of compounds was determined. The MBC value of standard antibiotics, clarithromycine (CLR) and metronidazole (MTZ) were served as the positive control.
Wild type (26695, as reference strain) was cultured on brucella broth agar plate containing 1% IsovialeX (Becton, Dickinson and Company, USA) and 10% sheep blood in microaerophilic environment (5% O2, 10% CO2, and 85% N2), 37° C. Clinical strains (v574, v633, v1086, v1254, v1267, v1354 and v2311) were cultured on brucella broth agar plate containing 1% IsovialeX and 20%-30% sheep blood in microaerophilic environment (5% O2, 10% CO2, and 85% N2), 37° C.
Wild type and selected clinical H. pylori strains was cultured for 24 to 36 hours and measured by Cell density meter, O.D. 680 at 0.87-0.9. H. pylori and selected compounds with serial concentration were mixed in Brucella-broth (BD) with 10% of FBS in 24-well plate, and total volume of each well was 300 μl, cultured under 37° C. with 180 rpm shaking. After incubated for 24 hours, 3 μl of each well was seeding on blood agar plate for another 48 hours culture. […] The final concentration of DMSO in the assay was less than 5% to avoid any effect in the growth of H. pylori at this experiment.

[3] = target: T1, H. pylori Shikimate Dehydrogenase (HpSDH); assay: Enzymatic kinetics of effective compounds toward HpSDH; type: biochemical; details: for inhibition type toward NADP+ / inhibition type toward shikimic acid: HpSDH
Method: as §1
To study the inhibition mode of these compounds and inhibition type to shikimic acid and NADP^+, different concentrations of inhibitors and graded concentrations of substrates by activity assay was examined.

[4] = test system: H. pylori; assay: Synergistic effect of compound 25a in MBC test against H. pylori; type: cell-based, Helicobacter pylori; details: for MBC: Helicobacter pylori, 24 h, read-out: MBC, single treatment

SMILES | IC50 [1] | inhibition activity toward HpSDH (in words) [1] | MBC ([2]; W.T 26695) | MBC ([2]; clinical isolated strain v574) | MBC ([2]; clinical isolated strain v633) | MBC ([2]; clinical isolated strain v1086) | MBC ([2]; clinical isolated strain v1254) | MBC ([2]; clinical isolated strain v1267) | MBC ([2]; clinical isolated strain v1354) | MBC ([2]; clinical isolated strain v2311) | MBC value against H. pylori ([2]; W.T 26695) | MBC value against H. pylori ([2]; clinical isolated strain v633) | Ki [3] | inhibition type toward NADP+ [3] | inhibition type toward shikimic acid [3] | also measured
O=C1NC(=O)C(=C/C=C/c2ccccc2)C(=O)N1 [7a] | 32.7 µM | more effective inhibitors | – | – | – | – | – | – | – | – | – | – | – | – | – | –
O=C1NC(=O)C(=C/C=C/c2ccc([N+](=O)[O-])cc2)C(=O)N1 [7b] | – | – | 8 µg/mL (≈ 27.9 µM) | 8 µg/mL (≈ 27.9 µM) | 4 µg/mL (≈ 13.9 µM) | 8 µg/mL (≈ 27.9 µM) | 8 µg/mL (≈ 27.9 µM) | 8 µg/mL (≈ 27.9 µM) | 8 µg/mL (≈ 27.9 µM) | 16 µg/mL (≈ 55.7 µM) | 8.0 µg/mL (≈ 27.9 µM) | 4.0 µg/mL (≈ 13.9 µM) | – | – | – | –
COc1ccccc1/C=C/C=C1C(=O)NC(=O)NC1=O [7c] | 33.7 µM | more effective inhibitors | – | – | – | – | – | – | – | – | – | – | – | – | – | MBC ([2]; 24 h, W.T 26695): 16 µg/mL (≈ 58.8 µM); MBC ([2]; 24 h, clinical isolated strain v574): 16 µg/mL (≈ 58.8 µM); MBC ([2]; 24 h, clinical isolated strain v633): 16 µg/mL (≈ 58.8 µM); MBC ([2]; 24 h, clinical isolated strain v1086): 8 µg/mL (≈ 29.4 µM); MBC ([2]; 24 h, clinical isolated strain v1254): 16 µg/mL (≈ 58.8 µM); MBC ([2]; 24 h, clinical isolated strain v1267): 16 µg/mL (≈ 58.8 µM); MBC ([2]; 24 h, clinical isolated strain v1354): 16 µg/mL (≈ 58.8 µM); MBC ([2]; 24 h, clinical isolated strain v2311): 16 µg/mL (≈ 58.8 µM)
COc1ccc(/C=C/C=C2C(=O)NC(=O)NC2=O)cc1 [7d] | 35.1 µM | more effective inhibitors | 8 µg/mL (≈ 29.4 µM) | 8 µg/mL (≈ 29.4 µM) | 4 µg/mL (≈ 14.7 µM) | 8 µg/mL (≈ 29.4 µM) | 8 µg/mL (≈ 29.4 µM) | 8 µg/mL (≈ 29.4 µM) | 8 µg/mL (≈ 29.4 µM) | 16 µg/mL (≈ 58.8 µM) | 8.0 µg/mL (≈ 29.4 µM) | 4.0 µg/mL (≈ 14.7 µM) | – | – | – | anti-bacterial activity toward H. pylori (in words) [2]: three most potent inhibitors
CSc1ccc(/C=C/C=C2C(=O)NC(=O)NC2=O)cc1 [7e] | 22 µM and 11 to 22 µM | more effective inhibitors | 8 µg/mL (≈ 27.7 µM) | 8 µg/mL (≈ 27.7 µM) | 8 µg/mL (≈ 27.7 µM) | 8 µg/mL (≈ 27.7 µM) | 8 µg/mL (≈ 27.7 µM) | 8 µg/mL (≈ 27.7 µM) | 8 µg/mL (≈ 27.7 µM) | 8 µg/mL (≈ 27.7 µM) | 8.0 µg/mL (≈ 27.7 µM) | – | 2.67 µM | competitive inhibition | non-competitive or uncompetitive | anti-bacterial activity toward H. pylori (in words) [2]: three most potent inhibitors
COc1cccc(OC)c1/C=C/C=C1C(=O)NC(=O)NC1=O [7h] | – | more effective inhibitors | 8 µg/mL (≈ 26.5 µM) | 8 µg/mL (≈ 26.5 µM) | 4 µg/mL (≈ 13.2 µM) | 16 µg/mL (≈ 52.9 µM) | 32 µg/mL (≈ 106 µM) | 8 µg/mL (≈ 26.5 µM) | 4 µg/mL (≈ 13.2 µM) | 16 µg/mL (≈ 52.9 µM) | 8.0 µg/mL (≈ 26.5 µM) | 4.0 µg/mL (≈ 13.2 µM) | – | – | – | MBC value against H. pylori ([2]; clinical isolated strain v1354): 4.0 µg/mL (≈ 13.2 µM)
COc1cc(/C=C/C=C2C(=O)NC(=O)NC2=O)cc(OC)c1 [7i] | 20.3 µM and 11 to 22 µM | more effective inhibitors | 8 µg/mL (≈ 26.5 µM) | 8 µg/mL (≈ 26.5 µM) | 4 µg/mL (≈ 13.2 µM) | 8 µg/mL (≈ 26.5 µM) | 32 µg/mL (≈ 106 µM) | 8 µg/mL (≈ 26.5 µM) | 4 µg/mL (≈ 13.2 µM) | 16 µg/mL (≈ 52.9 µM) | 8.0 µg/mL (≈ 26.5 µM) | 4.0 µg/mL (≈ 13.2 µM) | 3.81 µM | competitive inhibition | non-competitive or uncompetitive | MBC value against H. pylori ([2]; clinical isolated strain v1354): 4.0 µg/mL (≈ 13.2 µM)
C=CCN1C(=O)C(=C/C=C/c2ccccc2)C(=O)N(CC=C)C1=O [25a, (E)-1,3-diallyl-5-(3-phenylallylidene)pyrimidine-2,4,6(1H,3H,5H)-trione] | 11.4 µM and 11 to 22 µM | more effective inhibitors | 8 µg/mL (≈ 24.8 µM) | 8 µg/mL (≈ 24.8 µM) | 16 µg/mL (≈ 49.6 µM) | 8 µg/mL (≈ 24.8 µM) | 8 µg/mL (≈ 24.8 µM) | 8 µg/mL (≈ 24.8 µM) | 8 µg/mL (≈ 24.8 µM) | 8 µg/mL (≈ 24.8 µM) | 8.0 µg/mL (≈ 24.8 µM) | – | 2.01 µM | competitive inhibition | non-competitive or uncompetitive | anti-bacterial activity toward H. pylori (in words) [2]: three most potent inhibitors; MBC [4]: 6 µg/mL; MBC, single treatment ([4]; v574 MTR-resistant strain): 6.0 µg/mL; MBC, single treatment ([4]; v1086 CLR-resistant strain): 6.0 µg/mL
Cc1cc(C)cc(N2C(=O)NC(=O)/C(=C\C=C\c3ccccc3)C2=O)c1 [CB6010554] | – | – | 10 µg/mL (≈ 28.9 µM) | – | – | – | – | – | – | – | 10.0 µg/mL (≈ 28.9 µM) | – | – | – | – | –
C=CCN1C(=O)NC(=O)/C(=C/C=C/c2ccccc2)C1=O [CB6942859] | – | – | 5 µg/mL (≈ 17.7 µM) | – | – | – | – | – | – | – | 5.0 µg/mL (≈ 17.7 µM) | – | – | – | – | –
CC[C@H]1OC(=O)[C@H](C)[C@@H](O[C@H]2C[C@@](C)(OC)[C@@H](O)[C@H](C)O2)[C@H](C)[C@@H](O[C@@H]2O[C@H](C)C[C@H](N(C)C)[C@H]2O)[C@](C)(OC)C[C@@H](C)C(=O)[C@H](C)[C@@H](O)[C@]1(C)O [CLR, clarithromycin] | – | – | – | – | – | – | – | – | – | – | – | – | – | – | – | growth of resistant strain v1086 (in words) ([4]; CLR 4 mg/L alone or with compound 25a 2 mg/L): cannot completely inhibit the growth; MBC ([4]; 26695 wild type): < 1 µg/mL; MBC ([4]; v574 MTR-resistant strain): < 1 µg/mL; MBC ([4]; v1086 CLR-resistant strain): 8 µg/mL
Cc1ncc([N+](=O)[O-])n1CCO [MTR, metronidazole] | – | – | – | – | – | – | – | – | – | – | – | – | – | – | – | MBC ([4]; 26695 wild type): < 1 µg/mL; MBC ([4]; v574 MTR-resistant strain): 32 µg/mL; MBC ([4]; v1086 CLR-resistant strain): < 1 µg/mL; growth of v574 strain (in words) ([4]; MTR 16 mg/L alone or with compound 25a 2 mg/L): cannot suppressed the growth; dosage needed to inhibit strain v574 relative to compound 25a ([4]; v574 metronidazole resistant strain): 5 times
O=C1NC(=O)C(=C/C=C/c2ccc(NC(=O)c3ccccc3)cc2)C(=O)N1 [compound 17, (E)-N-(4-(3-(2,4,6-trioxotetrahydropyrimidin-5(2H)-ylidene)prop-1-en-1-yl)phenyl)benzamide] | 16.1 µM and 11 to 22 µM | more effective inhibitors | 16 µg/mL (≈ 44.3 µM) | 16 µg/mL (≈ 44.3 µM) | 16 µg/mL (≈ 44.3 µM) | 16 µg/mL (≈ 44.3 µM) | 16 µg/mL (≈ 44.3 µM) | 16 µg/mL (≈ 44.3 µM) | 8 µg/mL (≈ 22.1 µM) | 16 µg/mL (≈ 44.3 µM) | – | – | 6.93 µM | competitive inhibition | non-competitive or uncompetitive | –

Reference: patent publication US9145374B2, “Shikimate pathway inhibitors and the use thereof” (National Tsing Hua University, priority 2013, dated 2015)
